Legend:
[1] = system: SUP-B15 (B-Lymphoblastic Leukemia); assay: combination Emax (second highest fraction inhibited in the dose matrix, 72 h); higher = more inhibition; extreme values may be limits of the assay
Method in brief: (§1)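 Bliss excess equals the observed combination effect minus the expected value EA + EB − EA·EB, where EA and EB are the effects of each agent alone. Combination Emax is the second-highest inhibition within the matrix. Inhibition was scaled from CellTiter-Glo 2.0 luminescence, with 0 set by vehicle wells and 1 by blank wells, after 72 hours of two-drug dosing of cells plated in 1536-well plates.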

[2] = system: NCI-H661 (Non-Small Cell Lung Carcinoma); assay: as above
Method in brief: as §1

[3] = system: 8505C (Thyroid Gland Carcinoma); assay: as above
Method in brief: as §1

[4] = system: SK-GT-4 (Esophageal Adenocarcinoma); assay: as above
Method in brief: as §1

[5] = system: ST486 (Burkitt's Lymphoma); assay: as above
Method in brief: as §1

[6] = system: NCI-H520 (Squamous Cell Lung Carcinoma); assay: as above
Method in brief: as §1

[7] = system: KP-3 (Pancreatic Carcinoma); assay: as above
Method in brief: as §1

[8] = system: T-T (Esophageal Squamous Cell Carcinoma); assay: as above
Method in brief: as §1

[9] = system: PC-3 (Prostate Carcinoma); assay: as above
Method in brief: as §1

[10] = system: IM-95 (Gastric Carcinoma); assay: as above
Method in brief: as §1

[11] = system: SU-DHL-5 (B-Cell Non-Hodgkin's Lymphoma); assay: as above
Method in brief: as §1

[12] = system: HCC1187 (Breast Carcinoma); assay: as above
Method in brief: as §1

[13] = system: DMS-114 (Small Cell Lung Carcinoma); assay: as above
Method in brief: as §1

[14] = system: ESO51 (Esophageal Adenocarcinoma); assay: as above
Method in brief: as §1

[15] = system: CHSA8926 (Chondrosarcoma); assay: as above
Method in brief: as §1

[16] = system: SNU-398 (Hepatocellular Carcinoma); assay: as above
Method in brief: as §1

[17] = system: KY821 (Acute Myeloid Leukemia); assay: as above
Method in brief: as §1

[18] = system: COR-L279 (Small Cell Lung Carcinoma); assay: as above
Method in brief: as §1

[19] = system: MN-60 (B-Lymphoblastic Leukemia); assay: as above
Method in brief: as §1

[20] = system: SK-GT-4 (Esophageal Adenocarcinoma); assay: Bliss excess, mean over the matrix (fraction); higher = more synergy
Method in brief: as §1

SMILES: CN(CCO)CC[C@H](CSc1ccccc1)Nc1ccc(S(=O)(=O)NC(=O)c2ccc(N3CCC([C@@H](O)c4ccccc4-c4ccc(Cl)cc4)CC3)cc2)cc1S(=O)(=O)C(F)(F)F [AZD4320] + Cn1cnc2c(F)c(Nc3ccc(Br)cc3Cl)c(C(=O)NOCCO)cc21 [Selumetinib] (first compound max 1 µM, 7x7, partner max 3 µM)
- combination Emax [1]: 1
- combination Emax [2]: 0.264
- combination Emax [3]: 0.475
- combination Emax [4]: 0.624
- combination Emax [5]: 0.866
- combination Emax [6]: 0.203
- combination Emax [7]: 0.198
- combination Emax [8]: 0.325
- combination Emax [9]: 0.352
- combination Emax [10]: 0.876
- combination Emax [11]: 0.962
- combination Emax [12]: 0.377
- combination Emax [13]: 0.358
- combination Emax [14]: 0.476
- combination Emax [15]: 0.643
- combination Emax [16]: 0.38
- combination Emax [17]: 1
- combination Emax [18]: 0.997
- combination Emax [19]: 0.321
- Bliss excess [20]: 0.0128

SMILES: COc1cc2ncnc(Nc3ccc(F)c(Cl)c3)c2cc1OCCCN1CCOCC1 [Gefitinib] + CC(C)n1c(=O)n(C)c2cnc3cc(F)c(-c4ccc(OCCCN5CCCCC5)nc4)cc3c21 [AZD1390] (first compound max 10 µM, 7x7, partner max 0.3 µM)
- combination Emax [1]: 0.0538
- combination Emax [2]: 0.0361
- combination Emax [3]: 0.0956
- combination Emax [4]: 0.373
- combination Emax [5]: 0.35
- combination Emax [6]: 0.15
- combination Emax [7]: 0.0907
- combination Emax [8]: 0.411
- combination Emax [9]: 0.0447
- combination Emax [10]: 0.171
- combination Emax [11]: 0.393
- combination Emax [12]: 0.108
- combination Emax [13]: 0.255
- combination Emax [14]: 0.188
- combination Emax [15]: 0.194
- combination Emax [16]: 0.0256
- combination Emax [17]: 0.416
- combination Emax [18]: 0.395
- combination Emax [19]: 0.0314
- Bliss excess [20]: -0.0846

SMILES: CC(=O)c1c(C)c2cnc(Nc3ccc(N4CCNCC4)cn3)nc2n(C2CCCC2)c1=O [Palbociclib] + Cn1cnc2c(F)c(Nc3ccc(Br)cc3Cl)c(C(=O)NOCCO)cc21 [Selumetinib] (first compound max 10 µM, 7x7, partner max 10 µM)
- combination Emax [1]: 0.661
- combination Emax [2]: 0.119
- combination Emax [3]: 0.364
- combination Emax [4]: 0.566
- combination Emax [5]: 0.79
- combination Emax [6]: 0.679
- combination Emax [7]: 0.244
- combination Emax [8]: 0.46
- combination Emax [9]: 0.145
- combination Emax [10]: 0.315
- combination Emax [11]: 1
- combination Emax [12]: 0.129
- combination Emax [13]: 0.264
- combination Emax [14]: 0.601
- combination Emax [15]: 0.178
- combination Emax [16]: 0.376
- combination Emax [17]: 0.861
- combination Emax [18]: 0.37
- combination Emax [19]: 0.402
- Bliss excess [20]: -0.0126

SMILES: COc1cccc(OCCCN)c1-c1cc(Nc2cnc(C#N)cn2)n[nH]1 [Prexasertib] + Cc1cc2ncnn2cc1Nc1ncc2c(n1)n(C1CCOCC1)c(=O)n2C [AZD7648] (first compound max 1 µM, 7x7, partner max 10 µM)
- combination Emax [1]: 0.966
- combination Emax [2]: 0.75
- combination Emax [3]: 0.483
- combination Emax [4]: 0.735
- combination Emax [5]: 0.996
- combination Emax [6]: 0.881
- combination Emax [7]: 0.465
- combination Emax [8]: 0.65
- combination Emax [9]: 0.358
- combination Emax [10]: 0.36
- combination Emax [11]: 1
- combination Emax [12]: 0.614
- combination Emax [13]: 0.477
- combination Emax [14]: 0.777
- combination Emax [15]: 0.416
- combination Emax [16]: 0.441
- combination Emax [17]: 1
- combination Emax [18]: 0.803
- combination Emax [19]: 0.555
- Bliss excess [20]: -0.088

SMILES: COc1cccc(OCCCN)c1-c1cc(Nc2cnc(C#N)cn2)n[nH]1 [Prexasertib] + CN(C)CCCOc1ccc(-c2ccc3ncc4c(c3c2)n(C2CCOCC2)c(=O)n4C)cn1 [AZD0156] (first compound max 1 µM, 7x7, partner max 1 µM)
- combination Emax [1]: 0.959
- combination Emax [2]: 0.744
- combination Emax [3]: 0.541
- combination Emax [4]: 0.724
- combination Emax [5]: 0.991
- combination Emax [6]: 0.775
- combination Emax [7]: 0.513
- combination Emax [8]: 0.597
- combination Emax [9]: 0.272
- combination Emax [10]: 0.458
- combination Emax [11]: 1
- combination Emax [12]: 0.645
- combination Emax [13]: 0.408
- combination Emax [14]: 0.788
- combination Emax [15]: 0.288
- combination Emax [16]: 0.436
- combination Emax [17]: 1
- combination Emax [18]: 0.809
- combination Emax [19]: 0.546
- Bliss excess [20]: -0.0116

SMILES: COc1nnc2ccc(N3CCC(c4ccc(OCCN5CCN(C)C(=O)[C@H]5C)cc4)CC3)nn12 [AZD5153] + C=CCn1c(=O)c2cnc(Nc3ccc(N4CCN(C)CC4)cc3)nc2n1-c1cccc(C(C)(C)O)n1 [AZD1775] (first compound max 1 µM, partner max 1 µM)
- combination Emax [1]: 0.962
- combination Emax [2]: 0.731
- combination Emax [3]: 0.574
- combination Emax [4]: 0.6
- combination Emax [5]: 0.985
- combination Emax [6]: 0.811
- combination Emax [7]: 0.4
- combination Emax [8]: 0.615
- combination Emax [9]: 0.447
- combination Emax [10]: 0.5
- combination Emax [11]: 1
- combination Emax [12]: 0.792
- combination Emax [13]: 0.629
- combination Emax [14]: 0.723
- combination Emax [15]: 0.735
- combination Emax [16]: 0.818
- combination Emax [17]: 1
- combination Emax [18]: 0.899
- combination Emax [19]: 0.748
- Bliss excess [20]: -0.0369
